# Target: Neuronal acetylcholine receptor subunit alpha-4/beta-2 (Homo sapiens, UniProt P43681+P17787)
# Assay: Antagonist activity at human nAChR alpha4/beta2 receptor expressed in HEK ts201 cells assessed as calcium accumulation by fluorescence analysis
# Neuronal acetylcholine receptor subunit alpha-4/beta-2, sequence (P43681 whole entry): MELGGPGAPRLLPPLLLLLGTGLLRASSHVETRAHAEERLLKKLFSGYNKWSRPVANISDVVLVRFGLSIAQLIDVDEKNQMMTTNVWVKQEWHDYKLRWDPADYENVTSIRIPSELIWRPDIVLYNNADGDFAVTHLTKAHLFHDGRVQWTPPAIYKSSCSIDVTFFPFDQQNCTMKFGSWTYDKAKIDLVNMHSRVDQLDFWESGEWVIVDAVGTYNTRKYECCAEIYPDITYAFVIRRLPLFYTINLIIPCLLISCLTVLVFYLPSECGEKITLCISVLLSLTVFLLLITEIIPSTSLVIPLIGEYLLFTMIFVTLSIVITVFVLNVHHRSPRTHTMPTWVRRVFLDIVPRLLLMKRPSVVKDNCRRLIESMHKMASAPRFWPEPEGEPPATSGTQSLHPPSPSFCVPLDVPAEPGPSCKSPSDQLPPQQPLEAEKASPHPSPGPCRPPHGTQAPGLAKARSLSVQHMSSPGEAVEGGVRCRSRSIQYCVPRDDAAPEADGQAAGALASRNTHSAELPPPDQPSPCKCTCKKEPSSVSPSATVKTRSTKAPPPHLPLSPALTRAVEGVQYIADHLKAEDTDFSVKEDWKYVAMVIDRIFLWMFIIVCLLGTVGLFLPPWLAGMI
# Neuronal acetylcholine receptor subunit alpha-4/beta-2, sequence (P17787 whole entry): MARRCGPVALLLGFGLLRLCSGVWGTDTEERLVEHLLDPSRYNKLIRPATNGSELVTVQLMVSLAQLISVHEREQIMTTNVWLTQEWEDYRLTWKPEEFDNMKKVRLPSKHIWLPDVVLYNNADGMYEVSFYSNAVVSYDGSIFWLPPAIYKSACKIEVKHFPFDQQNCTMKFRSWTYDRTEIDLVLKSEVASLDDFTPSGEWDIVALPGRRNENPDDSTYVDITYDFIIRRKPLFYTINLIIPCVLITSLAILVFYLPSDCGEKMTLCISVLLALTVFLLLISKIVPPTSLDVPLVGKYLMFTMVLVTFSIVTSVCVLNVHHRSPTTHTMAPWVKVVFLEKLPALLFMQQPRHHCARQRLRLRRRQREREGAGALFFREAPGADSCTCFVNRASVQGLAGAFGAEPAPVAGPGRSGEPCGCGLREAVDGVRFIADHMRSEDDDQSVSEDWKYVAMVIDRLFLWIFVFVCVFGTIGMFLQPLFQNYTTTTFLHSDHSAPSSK
row,SMILES,IC50
1,O=C(OCC1=CCCN(CCCc2ccccc2)C1)c1ccccc1-n1c(O)cc(Cc2ccccc2)c1O,5.13 µM
2,CCN1CCCC(COC(=O)c2ccccc2-n2c(O)cc(Cc3ccccc3)c2O)C1 (stereo not given),4.47 µM
3,Cc1cc(O)n(-c2ccccc2C(=O)OC[C@@H]2CCCN(CCCc3ccccc3)C2)c1O,8.91 µM

# Continued, values first:
row,IC50,SMILES
1,5.13 µM,O=C(OCC1CCCN(CCCc2ccccc2)C1)c1ccccc1-n1c(O)cc(CCc2ccccc2)c1O (stereo not given)
2,4.47 µM,O=C(OCC1CCCN(CCc2ccccc2)C1)c1ccccc1-n1c(O)cc(Cc2ccccc2)c1O (stereo not given)

# Source: BindingDB's records for doi:10.1016/j.bmcl.2011.11.051 (The Ohio State University, 2012)
